Earlier results, collected in US11052042B2, “Aqueous suspensions of ciclesonide for nebulisation” (Covis Pharma B.V., priority 2003, dated 2021).

## CC(C)C(=O)OCC(=O)[C@@]12O[C@H](C3CCCCC3)O[C@@H]1C[C@H]1[C@@H]3CCC4=CC(=O)C=C[C@]4(C)[C@H]3[C@@H](O)C[C@@]12C [Ciclesonide, [11β,16α(R)]-16,17-[(Cyclohexylmethylen)bis(oxy)]-11-hydroxy-21-(2-methyl-1-oxopropoxy)pregna-1,4-dien-3,20-dion]
In vivo
  concentration of the drug in the lungs: high
  metabolism by liver oxidases: very high
  plasma half-life: low
Oral administration
  absorption after oral administration: only moderately absorbed
Relative to budesonide
  anti-inflammatory activity compared with budesonide: higher
  systemic activity compared with budesonide: three times lower
